Laboratory results published in ChEMBL document CHEMBL1201862, “PubChem BioAssay data set” (2004).
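Five concentrations, 48 hours, 96-well plates. GI50 = concentration required for 50% inhibition of growth.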 Activity calls are given as the source filed them. Cut-off read from the data, not from the text of the source: active = GI50 up to about 1.1 µM and inactive = higher.

Experiments:
Assay in all cases: NCI anticancer screen, dose series, 48 h
786-0 = tested on: 786-0
A498 = tested on: A498
A549 = tested on: A549
ACHN = tested on: ACHN
BT-549 = tested on: BT-549
CAKI-1 = tested on: CAKI-1
CCRF-CEM = tested on: CCRF-CEM
COLO 205 = tested on: COLO 205
DU-145 = tested on: DU-145
EKVX = tested on: EKVX
HCC 2998 = tested on: HCC 2998
HCT-116 = tested on: HCT-116
HCT-15 = tested on: HCT-15
HL-60 = tested on: HL-60
HOP-62 = tested on: HOP-62
HOP-92 = tested on: HOP-92
HT-29 = tested on: HT-29
Hs-578T = tested on: Hs-578T
IGROV-1 = tested on: IGROV-1
K562 = tested on: K562
KM12 = tested on: KM12
LOX IMVI = tested on: LOX IMVI
M14 = tested on: M14
MCF7 = tested on: MCF7
MDA-MB-231 = tested on: MDA-MB-231
MDA-MB-435 = tested on: MDA-MB-435
MDA-N = tested on: MDA-N
MOLT-4 = tested on: MOLT-4
Malme-3M = tested on: Malme-3M
NCI-H226 = tested on: NCI-H226
NCI-H23 = tested on: NCI-H23
NCI-H460 = tested on: NCI-H460
NCI-H522 = tested on: NCI-H522
NCI/ADR-RES = tested on: NCI/ADR-RES
OVCAR-3 = tested on: OVCAR-3
OVCAR-4 = tested on: OVCAR-4
OVCAR-5 = tested on: OVCAR-5
OVCAR-8 = tested on: OVCAR-8
PC-3 = tested on: PC-3
RPMI-8226 = tested on: RPMI-8226
RXF 393 = tested on: RXF 393
SF-268 = tested on: SF-268
SF-295 = tested on: SF-295
SF-539 = tested on: SF-539
SK-MEL-28 = tested on: SK-MEL-28
SK-MEL-2 = tested on: SK-MEL-2
SK-MEL-5 = tested on: SK-MEL-5
SK-OV-3 = tested on: SK-OV-3
SN12C = tested on: SN12C
SNB-19 = tested on: SNB-19
SNB-75 = tested on: SNB-75
SR = tested on: SR
SW-620 = tested on: SW-620
T47D = tested on: T47D
TK-10 = tested on: TK-10
U-251 = tested on: U-251
UACC-257 = tested on: UACC-257
UACC-62 = tested on: UACC-62
UO-31 = tested on: UO-31

Measured: GI50

Cc1cc(S(=O)(=O)Nc2nnc3c(Cl)cc(C(F)(F)F)cn23)c(S)cc1Cl
inactive: 786-0 57.1 µM | A498 > 100 µM | A549 51.6 µM | ACHN > 76.7 µM | BT-549 25.9 µM | CAKI-1 > 89.3 µM | CCRF-CEM > 84.7 µM | COLO 205 > 68.4 µM | DU-145 > 91.8 µM | EKVX 75 µM | HCC 2998 44.8 µM | HCT-116 34.8 µM | HL-60 > 100 µM | HOP-62 54.5 µM | HOP-92 > 100 µM | HT-29 37.2 µM | Hs-578T > 64.9 µM | IGROV-1 50.5 µM | K562 66.2 µM | KM12 39.3 µM | LOX IMVI > 86.3 µM | M14 > 83.8 µM | MCF7 > 61.1 µM | MDA-MB-231 > 59.3 µM | MDA-MB-435 45.5 µM | MDA-N 99.8 µM | MOLT-4 75.9 µM | Malme-3M 91 µM | NCI-H226 23.3 µM | NCI-H23 95.1 µM | NCI-H460 41.8 µM | NCI-H522 63.5 µM | NCI/ADR-RES > 80.4 µM | OVCAR-3 49.9 µM | OVCAR-4 66.5 µM | OVCAR-5 > 100 µM | OVCAR-8 50.4 µM | PC-3 69.3 µM | RPMI-8226 > 100 µM | RXF 393 > 100 µM | SF-268 > 79.3 µM | SF-295 71.8 µM | SF-539 35.7 µM | SK-MEL-28 > 100 µM | SK-MEL-2 48.4 µM | SK-MEL-5 22.8 µM | SK-OV-3 44.9 µM | SN12C > 96.6 µM | SNB-19 25.1 µM | SNB-75 4.88 µM | SR 66.8 µM | SW-620 > 68.4 µM | T47D 37.2 µM | TK-10 > 100 µM | U-251 36 µM | UACC-257 > 100 µM | UACC-62 48.9 µM | UO-31 30.2 µM
58.1 µM: HCT-15
